ChEMBL document CHEMBL1156829 (Proc Natl Acad Sci U S A, 2008)

How the values were obtained:
[1] = NOVARTIS: Cytotoxicity against human hepatocellular carcinoma cell line (Huh7); format: toxicity, cell-based, Huh-7; details: Huh7 cells (hepatocellular carcinoma cell line)
Plasmodium falciparum [2] = experiment: NOVARTIS: Inhibition of Plasmodium falciparum W2 (drug-resistant) proliferation in erythrocyte-based infection assay; format: functional, organism-based; details: read-out: EC50
Plasmodium falciparum [3] = experiment: NOVARTIS: Inhibition of Plasmodium falciparum 3D7 (drug-susceptible) proliferation in erythrocyte-based infection assay; format: functional, organism-based

SMILES | CC50 [1] [nM] | EC50 (Plasmodium falciparum [2]; Plasmodium falciparum, W2) [nM] | EC50 (Plasmodium falciparum [3]; Plasmodium falciparum, 3D7) [nM] | EC50 (Plasmodium falciparum [2]) [nM] | EC50 (Plasmodium falciparum [3]) [nM]
Cc1ccc(CNC(=O)c2cc(=O)[nH]c3ccc(S(=O)(=O)N4CCOCC4)cc23)cc1 | > 10000 | > 1090 | 1430 | – | –
CCOC(=O)C1=C(N)N(c2cccc([N+](=O)[O-])c2)C2=C(C(=O)CC(C)(C)C2)C1c1ccc(Br)cc1 (configuration not stated) | > 100000 | 150 | 1260 | – | –
COc1cc(NC(C)CCCN(Cc2ccc(N(C)C)cc2)C(=O)c2ccc(F)cc2)c2ncccc2c1 (configuration not stated) | > 10000 | 501 | > 630 | – | –
Nc1ccnc2cc(Cl)ccc12 | 72000 | 57.6 | 415 | – | –
O=C(C=Cc1cccnc1)C12CC3CC(CC(C3)C1)C2 | > 100000 | 122 | 216 | – | –
COc1ccc(CCN2C(=S)NC3c4cccc(OC)c4OC2(C)C3C(=O)Nc2ccc(C)cc2C)cc1OC (configuration not stated) | > 100000 | 68.7 | 320 | – | –
CCC(c1nc2ccccc2c(=O)n1-c1ccccc1OC)N(CCc1ccccc1)C(=O)c1cccc(OC)c1 (configuration not stated) | > 10000 | 31.1 | 1080 | – | –
CCSCCOC(=O)C1=C(C)NC2=C(C(=O)CCC2)C1c1ccc(OC)c(Br)c1 (configuration not stated) | > 100000 | 360 | 371 | – | –
CCCC[n+]1c(C=C2C=Cc3ccccc3N2CC)sc2ccccc21 | > 10000 | – | – | 694 | 724
CCCCOc1ccc(C(=O)NCCOc2cccc(OC)c2)cc1 | > 100000 | > 12500 | 288 | – | –
CC1(C)Oc2ccc(C(=O)N3CCCC3)cc2N(CCc2ccccc2)C1=O | > 10000 | 1870 | > 1120 | – | –
CCNC(=O)/C=C/c1ccc(C(C)(C)C)cc1 | > 10000 | 441 | > 1100 | – | –
Cc1ccc(N2C3c4ccccc4N(S(=O)(=O)c4ccc(C)cc4)C2c2ccccc2N3S(=O)(=O)c2ccc(C)cc2)cc1 | > 10000 | 1490 | 720 | – | –
CCCCN(CC)CCNC(=O)C1c2ccccc2C(=O)N(Cc2ccc(F)cc2)C1c1ccc(OC)cc1 (configuration not stated) | > 100000 | 195 | 2270 | – | –
COc1ccc(C(=O)Oc2ccccc2-c2nc3ccccn3c2NC(C)(C)CC(C)(C)C)cc1 | > 10000 | 7.51 | > 1600 | – | –
c1ccc2cc3c(NCCN4CCOCC4)ccnc3cc2c1 | > 10000 | 313 | 310 | – | –
COc1cccc(-c2ccc(O)c(CNCC3CC4C=CC3C43CC3)c2)n1 (configuration not stated) | > 85900 | 19.9 | 153 | – | –

SMILES | CC50 [1] [nM] | EC50 (Plasmodium falciparum [2]; Plasmodium falciparum, W2) [nM] | EC50 (Plasmodium falciparum [3]; Plasmodium falciparum, 3D7) [nM] | EC50 (Plasmodium falciparum [2]) [nM] | EC50 (Plasmodium falciparum [3]) [nM]
COC(=O)c1c(-c2c(F)cccc2Cl)noc1C=CNc1ccccc1 | 73700 | 6980 | 11400 | – | –
CC(C)(C)OC(=O)NCC(=O)Oc1cc2oc(=O)cc(-c3ccccc3)c2cc1Cl | > 10000 | > 755 | > 1250 | – | –
CC1=CC(=C(C#N)c2nc3ccccc3s2)C=C(C)N1c1ccc2c(c1)OCO2 | > 100000 | 3710 | 1040 | – | –
CSC1=NC(=Nc2ccccc2C)C2(CCC(C(C)(C)C)CC2)N1c1ccc(O)cc1 (configuration not stated) | > 10000 | 208 | 243 | – | –
COc1ccc(C2CC(=O)C3=C(C2)NC(C)=C(C(=O)OC2CCCCC2)C3c2cccc(C)c2)cc1OC (configuration not stated) | > 100000 | 281 | 837 | – | –
N#Cc1c2c(c(N3CCN(c4ccccn4)CC3)n3c1nc1ccccc13)CCC2 | > 100000 | 1180 | 2360 | – | –
CCNC(=O)[C@@H]1C[C@@H](NC2C3CC4CC(C3)CC2C4)CN1Cc1cccc(OC)c1OC (some centres not stated) | 72200 | 4600 | > 12500 | – | –
CCn1c(CNc2ccc(Cl)cc2)nnc1SCC(=O)Nc1cccc(C)c1C | > 10000 | 26.7 | > 1250 | – | –
CN1CC=C(/C=C/c2c[nH]c3ccccc23)CC1 | > 10000 | 100 | 483 | – | –
Cc1ccc(NC(=O)CCCCC(=O)Nc2ccc(C)c(Br)c2)cc1Br | > 10000 | > 1450 | > 1160 | – | –
CC(C)(C)CC(C)(C)Nc1c(-c2ccccc2OC(=O)C2CCCCC2)nc2ccccn12 | > 10000 | 10.1 | 349 | – | –
CC12CCC(CN(CC(O)Cn3c4ccc(Br)cc4c4cc(Br)ccc43)C1)C2(C)C (configuration not stated) | > 100000 | 2200 | 2960 | – | –
COc1ccc(NC(C)=C2C(=O)c3ccccc3C2=O)c(OC)c1 | > 100000 | 426 | 1270 | – | –
c1ccc2cc3c(NCCCN4CCOCC4)ccnc3cc2c1 | 598 | 83.5 | 44.3 | – | –
COc1cc2nc(Nc3cccc(F)c3)nc(N)c2cc1OC | 20100 | 358 | 148 | – | –
CCOc1ccc(NC(=O)C(C)CSc2nc3ccc(NC(=O)CC)cc3s2)cc1 (configuration not stated) | > 100000 | 1480 | > 12500 | – | –
NC(=O)C1CCCN(C(=O)COC(c2ccccc2)c2cccnc2Cl)C1 (configuration not stated) | 45600 | > 12500 | 4810 | – | –
